# Results: patent US7772252B2, “Heterocyclic substituted carbonyl derivatives and their use as dopamine D3 receptor ligands” (Aventis Pharmaceuticals Inc., priority 2001, dated 2010)
# Molecular target: T1, cloned human dopamine D3 receptors (Homo sapiens, UniProt P35462)
# T1 construct: expressed in transfected cells; membrane homogenate
# Test: [N-Methyl-3H]Spiroperidol binding to cloned human dopamine D3 receptors
# Details: D3 Ki (nM)
# Method in brief: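 Stably transfected CHO cells expressing cloned human D3 receptor were used as membranes homogenized in 10% DMSO. Ligand was [N-methyl-3H]spiroperidol displacement.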
# T1 sequence (P35462 whole entry): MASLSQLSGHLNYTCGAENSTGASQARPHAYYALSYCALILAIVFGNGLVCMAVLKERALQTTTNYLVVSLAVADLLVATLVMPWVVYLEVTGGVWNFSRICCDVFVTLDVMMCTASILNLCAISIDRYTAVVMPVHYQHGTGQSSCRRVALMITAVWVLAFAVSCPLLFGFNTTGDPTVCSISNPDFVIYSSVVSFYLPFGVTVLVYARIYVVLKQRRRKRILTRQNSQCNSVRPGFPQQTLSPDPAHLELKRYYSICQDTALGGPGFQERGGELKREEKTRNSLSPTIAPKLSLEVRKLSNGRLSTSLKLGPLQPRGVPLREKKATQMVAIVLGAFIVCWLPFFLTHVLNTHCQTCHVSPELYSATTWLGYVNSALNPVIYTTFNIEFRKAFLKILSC
row,SMILES,Ki [nM]
1,O=C([C@@H]1C[C@H]1CN1CCC(c2noc3ccsc23)CC1)N1CCC2(CC1)OCCO2 [compound 829466],24.8

# Same assay, conditions: read-out: D3 Ki
row,SMILES,Ki [nM]
1,O=C([C@@H]1C[C@H]1CN1CCC(c2noc3ccsc23)CC1)N1CCN(C/C=C/c2ccccc2)CC1 [compound 829467],9.01
2,O=C(NCCCn1ccnc1)[C@@H]1C[C@H]1CN1CCC(c2noc3ccsc23)CC1 [compound 829596],4.41
3,CC1CCC(NC(=O)C2CC2CN2C3CCC2CC(c2n[nH]c4ccccc24)C3)CC1 (stereo not drawn) [compound 830115],45.3
4,CCC1CCC(NC(=O)C2CC2CN2C3CCC2CC(c2n[nH]c4cc(F)ccc24)C3)CC1 (stereo not drawn) [compound 830130],6.68
5,O=C([C@@H]1C[C@H]1CN1CCC(c2noc3ccsc23)CC1)N1CCC(O)CC1 [compound 830250],48.6
6,O=C(N[C@H]1CC[C@H](O)CC1)[C@@H]1C[C@H]1CN1CCC(c2noc3ccsc23)CC1 [compound 830251],11.4
7,O=C([C@@H]1C[C@H]1CN1CCC(c2noc3ccsc23)CC1)N1CCN(c2ccccn2)CC1 [compound 830252],110
8,O=C([C@@H](O)CCN1CCC(c2noc3ccsc23)CC1)N1CCCCC1 [compound 830557],97.4
9,O=C([C@H](O)CCN1CCC(c2noc3ccsc23)CC1)N1CCCCC1 [compound 830558],34.2
10,O=C(NC1CCCCC1)[C@H](O)CCN1CCC(c2noc3ccsc23)CC1 [compound 830573],547
11,O=C(NCCCc1ccccc1)[C@@H]1C[C@H]1CN1CCC(c2noc3ccsc23)CC1 [compound 830828],8.57
12,O=C(NCCc1ccccc1)[C@@H]1C[C@H]1CN1CCC(c2noc3ccsc23)CC1 [compound 830829],5.3
13,O=C(NCCc1c[nH]c2ccccc12)[C@@H]1C[C@H]1CN1CCC(c2noc3ccsc23)CC1 [compound 830830],2.58
14,O=C(NCCc1c[nH]c2cc(F)ccc12)[C@@H]1C[C@H]1CN1CCC(c2noc3ccsc23)CC1 [compound 830831],3.19
15,O=C(NCCCN1CCCC1=O)[C@@H]1C[C@H]1CN1CCC(c2noc3ccsc23)CC1 [compound 830832],67.7
16,O=C(NCCCN1CCCCC1)[C@@H]1C[C@H]1CN1CCC(c2noc3ccsc23)CC1 [compound 831045],335
17,O=C(NCCCCc1ccccc1)[C@@H]1C[C@H]1CN1CCC(c2noc3ccsc23)CC1 [compound 831047],2.87
18,C[C@H]1CC[C@H](NC(=O)[C@H]2C[C@@H]2CN2CCN(c3noc4ccsc34)CC2)CC1 [compound 831082],38.2
19,C[C@H]1CC[C@H](NC(=O)[C@H]2C[C@@H]2CN2CCC(c3cc4ccccc4s3)CC2)CC1 [compound 831147],40.8
20,O=C(NCCc1c[nH]cn1)[C@@H]1C[C@H]1CN1CCC(c2noc3ccsc23)CC1 [compound 831192],3.44
21,O=C([C@@H]1C[C@H]1CN1CCC(c2noc3ccsc23)CC1)N1CCC(c2ccccc2)CC1 [compound 831193],23.8
22,O=C([C@@H]1C[C@H]1CN1CCC(c2noc3ccsc23)CC1)N1CCC(Cc2ccccc2)CC1 [compound 831194],5.06
23,O=C(NCCCc1cccnc1)[C@@H]1C[C@H]1CN1CCC(c2noc3ccsc23)CC1 [compound 831195],1.84

row,SMILES,Ki [nM]
1,COc1cc2c(cc1OC)CN(C(=O)[C@@H]1C[C@H]1CN1CCC(c3noc4ccsc34)CC1)CC2 [compound 831196],7.81
2,O=C(NCCCn1cnc(Cl)c1Cl)[C@@H]1C[C@H]1CN1CCC(c2noc3ccsc23)CC1 [compound 831198],1.76
3,O=C([C@@H]1C[C@H]1CN1CCC(c2noc3ccsc23)CC1)N1CCc2ccccc2C1 [compound 831199],2.78
4,O=C(NCCC1=CCCCC1)[C@@H]1C[C@H]1CN1CCC(c2noc3ccsc23)CC1 [compound 831215],5.92
5,CC[C@H]1CC[C@H](NC(=O)[C@@H]2C[C@H]2CN2CCN(c3nn(-c4ccc(C(F)(F)F)cc4)c4ccccc34)CC2)CC1 [compound 831226],26.7
6,Cc1ccc(S(=O)(=O)n2nc(N3CCN(C[C@@H]4C[C@H]4C(=O)NCCCn4ccnc4)CC3)c3sccc32)cc1 [compound 831267],28.3
7,O=C(NCCCn1ccnc1)[C@@H]1C[C@H]1CN1CCN(c2csc3cc(C(F)(F)F)ccc23)CC1 [compound 831269],4.08
8,O=C(NCCCc1ccccc1)[C@@H]1C[C@H]1CN1CCN(c2csc3cc(C(F)(F)F)ccc23)CC1 [compound 831270],17.8
9,O=C(NCCc1c[nH]c2ccccc12)[C@@H]1C[C@H]1CN1CCN(c2csc3cc(C(F)(F)F)ccc23)CC1 [compound 831271],6.57
10,O=C(NCCCN1CCCC1)[C@@H]1C[C@H]1CN1CCC(c2noc3ccsc23)CC1 [compound 831272],6.22
11,O=C(NCCc1ccccn1)[C@@H]1C[C@H]1CN1CCC(c2noc3ccsc23)CC1 [compound 831274],17.4
12,Cc1ccc2[nH]cc(CCNC(=O)[C@@H]3C[C@H]3CN3CCC(c4noc5ccsc45)CC3)c2c1 [compound 831277],5.38
13,CN(CCc1c[nH]c2ccccc12)C(=O)[C@@H]1C[C@H]1CN1CCC(c2noc3ccsc23)CC1 [compound 831278],18.1
14,COc1c(F)ccc2c(C3CCN(C[C@@H]4C[C@H]4C(=O)NCCCn4ccnc4)CC3)noc12 [compound 831309],40.6
15,COc1c(F)ccc2c(C3CCN(C[C@@H]4C[C@H]4C(=O)NCCCc4ccccc4)CC3)noc12 [compound 831310],103
16,O=C(NCCCc1ccccc1)[C@@H]1C[C@H]1CN1CCC(c2nn(-c3ccc(C(F)(F)F)cc3)c3ccccc23)CC1 [compound 831312],214
17,COc1ccc2c(c1)c(N1CCN(C[C@@H]3C[C@H]3C(=O)NCCCn3ccnc3)CC1)nn2-c1ccc(C(F)(F)F)cc1 [compound 831313],134
18,COc1ccc2c(c1)c(N1CCN(C[C@@H]3C[C@H]3C(=O)NCCCc3ccccc3)CC1)nn2-c1ccc(C(F)(F)F)cc1 [compound 831314],133
19,O=C(NCCCn1ccnc1)[C@@H]1C[C@H]1CN1CCN(c2n[nH]c3ccsc23)CC1 [compound 831315],29.3
20,O=C(NCCOc1ccccc1)[C@@H]1C[C@H]1CN1CCC(c2noc3ccsc23)CC1 [compound 831343],13.7
21,COc1ccc(CCNC(=O)[C@@H]2C[C@H]2CN2CCC(c3noc4ccsc34)CC2)cc1 [compound 831344],22.1
22,O=C([C@@H]1C[C@H]1CN1CCC(c2noc3ccsc23)CC1)N1CCC(c2noc3ccsc23)CC1 [compound 831345],34.4
23,COc1c(F)ccc2c(C3CCN(C[C@H]4C[C@@H]4C(=O)N[C@H]4CC[C@H](C)CC4)CC3)noc12 [compound 831360],17.1

row,SMILES,Ki [nM]
1,"COc1c(F)ccc2c(C3CCN(C[C@@H]4C[C@H]4C(=O)N[C@H]4CC[C@H](C)CC4)CC3)noc12 [compound 831361, 2R-[4-(6-Fluoro-7-methoxy-benzo[d]isoxazol-3-yl)-piperidin-1-ylmethyl]-1R-cyclopranecarboxylic acid (trans-4-methyl-cyclohexyl)-amide]",1.75
2,O=C(NCCCn1cccc1)[C@@H]1C[C@H]1CN1CCC(c2noc3ccsc23)CC1 [compound 831376],40.3
3,O=C(NCCCn1cnc2ccccc21)[C@@H]1C[C@H]1CN1CCC(c2noc3ccsc23)CC1 [compound 831377],4.68
4,O=C(NCCCn1ccnc1-c1ccccc1)[C@@H]1C[C@H]1CN1CCC(c2noc3ccsc23)CC1 [compound 831378],35.6
5,Cc1ncc([N+](=O)[O-])n1CCNC(=O)[C@@H]1C[C@H]1CN1CCC(c2noc3ccsc23)CC1 [compound 831379],46.7
6,O=C(NCCCn1ccnc1)[C@@H]1C[C@H]1CN1CCC(c2cc3ccccc3s2)CC1 [compound 831488],0.725
7,O=C(NCCCN1CCCCC1)[C@@H]1C[C@H]1CN1CCN(c2csc3cc(C(F)(F)F)ccc23)CC1 [compound 831491],0.187
8,O=C(NCCCN1CCOCC1)[C@@H]1C[C@H]1CN1CCN(c2csc3cc(C(F)(F)F)ccc23)CC1 [compound 831492],0.432
9,COc1ccc2c(c1)c(N1CCN(C[C@@H]3C[C@H]3C(=O)N[C@H]3CC[C@H](C)CC3)CC1)nn2C [compound 831768],0.904
10,COc1ccc2c(c1)c(N1CCN(C[C@@H]3C[C@H]3C(=O)NCCCn3ccnc3)CC1)nn2C [compound 831808],3.84
11,COc1cccc2c(C3CCN(C[C@@H]4C[C@H]4C(=O)N[C@H]4CC[C@H](C)CC4)CC3)noc12 [compound 831809],0.0284
12,COc1cccc2c(C3CCN(C[C@@H]4C[C@H]4C(=O)N4CCC(C(=O)c5ccc(F)cc5)CC4)CC3)noc12 [compound 831810],124
13,Cn1nc(N2CCN(C[C@@H]3C[C@H]3C(=O)NCCCn3ccnc3)CC2)c2sccc21 [compound 831830],0.76
14,COc1cccc2c(C3CCN(C[C@@H]4C[C@H]4C(=O)NCCCn4ccnc4)CC3)noc12 [compound 831880],100
15,O=C([C@@H]1C[C@H]1CN1CCN(c2csc3cc(C(F)(F)F)ccc23)CC1)N1CCN(Cc2ccc(Cl)c(Cl)c2)CC1 [compound 831881],109
16,O=C(c1ccc(Cl)cc1)C1CCN(C(=O)[C@@H]2C[C@H]2CN2CCN(c3csc4cc(C(F)(F)F)ccc34)CC2)CC1 [compound 831882],57.3
17,O=C([C@@H]1C[C@H]1CN1CCN(c2csc3cc(C(F)(F)F)ccc23)CC1)N1CCN(Cc2ccccc2)CC1 [compound 831883],48.1
18,O=C(NCCN1CCCCC1)[C@@H]1C[C@H]1CN1CCN(c2csc3cc(C(F)(F)F)ccc23)CC1 [compound 831885],35.3
19,O=C(NCCN1CCCC1)[C@@H]1C[C@H]1CN1CCN(c2csc3cc(C(F)(F)F)ccc23)CC1 [compound 831886],16.8
20,O=C(NCCCN1CCCC1)[C@@H]1C[C@H]1CN1CCN(c2csc3cc(C(F)(F)F)ccc23)CC1 [compound 831887],6.5
21,CN(C)CCCNC(=O)[C@@H]1C[C@H]1CN1CCN(c2csc3cc(C(F)(F)F)ccc23)CC1 [compound 831888],17.5
22,Cc1cn(CCCNC(=O)[C@@H]2C[C@H]2CN2CCC(c3noc4ccsc34)CC2)cn1 [compound 831937],35
